Experimental data: patent US20250197372A1 (priority 2020, published 2025)

Key:
Format in all cases: biochemical
[1] = biological target: rat sucrase (partially purified alpha-glucosidase from intestinal rat powder) (Rattus norvegicus, UniProt P23739); assay: Intestinal alpha-glucosidase assay, sucrose substrate (Glucose GO Kit)
In short: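 Rat intestinal enzyme prep + test cpd dilutions, 60 min 37 °C; add maltose (maltase) or sucrose (sucrase), 30 min 37 °C; stop 90 °C 5 min. Glucose readout (glucose oxidase kit). IC50 from 4-PL fit of % inhibition vs conc.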

[2] = biological target: recombinant human GAA (acid alpha-glucosidase) (Homo sapiens, UniProt P10253); assay: Acid alpha-glucosidase (GAA) assay (4-methylumbelliferyl-alpha-D-pyranoside substrate, fluorescence)
In short: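 Recombinant human enzyme preincubated 60 min at 37 °C with compound dilutions, then 4-methylumbelliferyl-alpha-D-pyranoside substrate added for 20 min at 37 °C. Stopped with glycine/NaOH pH 10; methylumbelliferone fluorescence (ex 365, em 440 nm) versus untreated enzyme; IC50 by 4-PL fit.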

[3] = biological target: T1, recombinant human GBA (beta-glucocerebrosidase) (Homo sapiens, UniProt P04062); assay: Beta-glucocerebrosidase (GBA, glucosylceramidase) assay (4-methylumbelliferyl-beta-D-pyranoside substrate, fluorescence)
T1 sequence (P04062 40-536): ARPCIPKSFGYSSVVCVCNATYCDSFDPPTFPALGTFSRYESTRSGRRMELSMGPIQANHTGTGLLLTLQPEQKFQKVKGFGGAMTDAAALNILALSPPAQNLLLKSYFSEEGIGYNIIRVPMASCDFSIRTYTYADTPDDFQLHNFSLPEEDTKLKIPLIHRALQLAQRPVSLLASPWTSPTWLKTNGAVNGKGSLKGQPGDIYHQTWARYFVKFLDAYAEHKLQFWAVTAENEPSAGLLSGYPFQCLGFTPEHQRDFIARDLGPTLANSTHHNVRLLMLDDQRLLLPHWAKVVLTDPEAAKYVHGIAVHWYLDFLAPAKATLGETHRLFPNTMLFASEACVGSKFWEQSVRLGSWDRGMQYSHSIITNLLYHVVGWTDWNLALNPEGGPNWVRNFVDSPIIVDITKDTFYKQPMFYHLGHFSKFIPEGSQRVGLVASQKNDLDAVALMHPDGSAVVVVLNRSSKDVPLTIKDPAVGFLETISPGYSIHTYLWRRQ
In short: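 Recombinant human GBA preincubated with compound dilutions 60 min at 37 °C, then 4-methylumbelliferyl-beta-D-pyranoside added for 60 min at 37 °C. Stopped at pH 10 (glycine/NaOH); fluorescence ex 365/em 440 nm. IC50 from 4-PL fit of inhibition relative to untreated enzyme.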

Chain of rat sucrase (partially purified alpha-glucosidase from intestinal rat powder) (P23739 whole entry): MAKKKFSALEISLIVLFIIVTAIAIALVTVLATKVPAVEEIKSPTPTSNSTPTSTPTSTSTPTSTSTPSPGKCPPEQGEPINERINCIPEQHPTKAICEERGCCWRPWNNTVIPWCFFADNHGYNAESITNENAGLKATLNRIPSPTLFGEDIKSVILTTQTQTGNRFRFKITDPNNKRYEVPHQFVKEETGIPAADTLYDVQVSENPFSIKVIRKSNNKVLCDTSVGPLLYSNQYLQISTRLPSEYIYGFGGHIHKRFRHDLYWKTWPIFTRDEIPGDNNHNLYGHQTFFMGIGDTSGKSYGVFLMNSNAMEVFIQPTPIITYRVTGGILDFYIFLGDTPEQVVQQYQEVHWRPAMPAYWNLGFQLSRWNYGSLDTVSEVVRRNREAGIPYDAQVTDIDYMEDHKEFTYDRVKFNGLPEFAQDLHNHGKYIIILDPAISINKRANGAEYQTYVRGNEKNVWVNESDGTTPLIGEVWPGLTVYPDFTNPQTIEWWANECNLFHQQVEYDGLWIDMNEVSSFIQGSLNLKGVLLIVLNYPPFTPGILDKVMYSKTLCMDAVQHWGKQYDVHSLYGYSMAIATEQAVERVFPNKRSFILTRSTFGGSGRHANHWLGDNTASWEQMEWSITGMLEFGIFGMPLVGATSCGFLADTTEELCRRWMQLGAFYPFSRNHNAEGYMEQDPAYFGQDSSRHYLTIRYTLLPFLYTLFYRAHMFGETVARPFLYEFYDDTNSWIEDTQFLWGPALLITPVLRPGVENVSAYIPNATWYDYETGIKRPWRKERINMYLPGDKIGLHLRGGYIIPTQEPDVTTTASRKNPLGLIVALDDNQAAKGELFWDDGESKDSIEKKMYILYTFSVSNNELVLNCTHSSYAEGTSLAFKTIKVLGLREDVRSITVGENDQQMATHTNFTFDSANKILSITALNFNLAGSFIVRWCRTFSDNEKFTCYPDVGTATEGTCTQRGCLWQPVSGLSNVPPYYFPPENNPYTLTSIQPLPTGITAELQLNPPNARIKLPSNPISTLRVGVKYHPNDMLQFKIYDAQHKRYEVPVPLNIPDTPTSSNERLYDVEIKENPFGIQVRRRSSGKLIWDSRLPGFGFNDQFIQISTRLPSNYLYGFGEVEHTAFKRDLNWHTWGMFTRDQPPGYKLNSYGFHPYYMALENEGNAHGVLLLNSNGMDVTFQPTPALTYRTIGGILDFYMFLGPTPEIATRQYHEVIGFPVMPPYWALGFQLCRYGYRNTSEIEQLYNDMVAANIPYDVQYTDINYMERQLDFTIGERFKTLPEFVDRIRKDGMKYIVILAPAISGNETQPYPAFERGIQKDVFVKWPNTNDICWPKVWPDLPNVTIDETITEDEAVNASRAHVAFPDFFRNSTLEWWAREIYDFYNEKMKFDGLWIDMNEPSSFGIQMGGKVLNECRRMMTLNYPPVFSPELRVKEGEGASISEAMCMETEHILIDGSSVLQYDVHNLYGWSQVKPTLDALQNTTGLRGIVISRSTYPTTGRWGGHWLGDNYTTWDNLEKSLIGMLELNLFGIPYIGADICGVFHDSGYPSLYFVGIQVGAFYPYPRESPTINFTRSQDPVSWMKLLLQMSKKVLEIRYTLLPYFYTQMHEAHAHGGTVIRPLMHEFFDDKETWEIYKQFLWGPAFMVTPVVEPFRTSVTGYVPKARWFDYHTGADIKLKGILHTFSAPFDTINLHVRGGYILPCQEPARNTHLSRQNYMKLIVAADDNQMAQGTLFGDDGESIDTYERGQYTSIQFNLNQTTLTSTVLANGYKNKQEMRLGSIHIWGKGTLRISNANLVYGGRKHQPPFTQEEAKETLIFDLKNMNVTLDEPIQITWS

| Structure (SMILES) | IC50 [1] [nM] | IC50 [2] [nM] | IC50 [3] [nM] |
| --- | --- | --- | --- |
| OC[C@@H]1[C@@H](O)[C@H](O)[C@@H](O)CN1Cc1cccc(CNc2ccc(N3CCOCC3)cc2)c1 [Compound 1081, (2R,3R,4R,5S)-2-(hydroxymethyl)-1-{[3-({[4-(morpholin-4-yl)phenyl]amino}methyl)phenyl]methyl}piperidine-3,4,5-triol] | 161 | 1270 | > 100000 |
| CS(=O)(=O)c1cc(NCc2ccc(CN3C[C@H](O)[C@@H](O)[C@H](O)[C@H]3CO)cc2)cc(N2CCOCC2)c1 [Compound 1054, (2R,3R,4R,5S)-2-(hydroxymethyl)-1-{[4-({[3-methanesulfonyl-5-(morpholin-4-yl)phenyl]amino}methyl)phenyl]methyl}piperidine-3,4,5-triol] | 160 | 371 | > 100000 |
| Cc1cc(NCc2ccc(CN3C[C@H](O)[C@@H](O)[C@H](O)[C@H]3CO)cc2)cc(-c2ccc[nH]2)c1 [Compound 1051, (2R,3R,4R,5S)-2-(hydroxymethyl)-1-{[4-({[3-methyl-5-(1H-pyrrol-2-yl)phenyl]amino}methyl)phenyl]methyl}piperidine-3,4,5-triol] | < 1 | 291 | 15000 |
| OC[C@@H]1[C@@H](O)[C@H](O)[C@@H](O)CN1Cc1ccc(CNc2ccc(CN3CCCO3)cc2)cc1 [Compound 1092, (2R,3R,4R,5S)-2-(hydroxymethyl)-1-({4-[({4-[(1,2-oxazolidin-2-yl)methyl]phenyl}amino)methyl]phenyl}methyl)piperidine-3,4,5-triol] | 48 | 786 | 121000 |
| OC[C@@H]1[C@@H](O)[C@H](O)[C@@H](O)CN1Cc1cccc(CNc2ccc(C3=COCCO3)cc2)c1 [Compound 1066, (2R,3R,4R,5S)-1-{[3-({[4-(5,6-dihydro-1,4-dioxin-2-yl)phenyl]amino}methyl)phenyl]methyl}-2-(hydroxymethyl)piperidine-3,4,5-triol] | 26 | 1060 | > 100000 |
| O=[N+]([O-])c1cc(CN2CCCO2)ccc1NCCc1ccc(CCN2C[C@H](O)[C@@H](O)[C@H](O)[C@H]2CO)cc1 [Compound 1108, (2R,3R,4R,5S)-2-(hydroxymethyl)-1-(2-{4-[2-({2-nitro-4-[(1,2-oxazolidin-2-yl)methyl]phenyl}amino)ethyl]phenyl}ethyl)piperidine-3,4,5-triol] | 908 | 311 | 6000 |
| O=[N+]([O-])c1cc(-c2ncccn2)ccc1NCc1cccc(CN2C[C@H](O)[C@@H](O)[C@H](O)[C@H]2CO)c1 [Compound 1090, (2R,3R,4R,5S)-2-(hydroxymethyl)-1-{[3-({[2-nitro-4-(pyrimidin-2-yl)phenyl]amino}methyl)phenyl]methyl}piperidine-3,4,5-triol] | 2 | 509 | 32400 |
| N#Cc1cc(NCc2ccc(CN3C[C@H](O)[C@@H](O)[C@H](O)[C@H]3CO)cc2)cc(-c2cccnn2)c1 [Compound 1064, 3-(pyridazin-3-yl)-5-{[(4-{[(2R,3R,4R,5S)-3,4,5-trihydroxy-2-(hydroxymethyl)piperidin-1-yl]methyl}phenyl)methyl]amino}-benzonitrile] | 26 | 39 | 53700 |
| COC(=O)c1cc(Cl)cc(NCCc2ccc(CCN3C[C@H](O)[C@@H](O)[C@H](O)[C@H]3CO)cc2)c1 [Compound 1116, methyl 3-chloro-5-{[2-(4-{2-[(2R,3R,4R,5S)-3,4,5-trihydroxy-2-(hydroxymethyl)piperidin-1-yl]ethyl}phenyl)ethyl]amino}benzoate] | 1230 | 428 | 904 |
| O=[N+]([O-])c1cc(C2=COCCO2)ccc1NCc1cccc(CN2C[C@H](O)[C@@H](O)[C@H](O)[C@H]2CO)c1 [Compound 1087, (2R,3R,4R,5S)-1-{[3-({[4-(5,6-dihydro-1,4-dioxin-2-yl)-2-nitro-phenyl]amino}methyl)phenyl]methyl}-2-(hydroxymethyl)piperidine-3,4,5-triol] | < 1 | 554 | > 100000 |
| O=[N+]([O-])c1cc(-c2ncccn2)ccc1NCCc1ccc(CCN2C[C@H](O)[C@@H](O)[C@H](O)[C@H]2CO)cc1 [Compound 1111, (2R,3R,4R,5S)-2-(hydroxymethyl)-1-{2-[4-(2-{[2-nitro-4-(pyrimidin-2-yl)phenyl]amino}ethyl)phenyl]ethyl}piperidine-3,4,5-triol] | 773 | 20 | 1790 |
| N#Cc1cc(NCc2cccc(CN3C[C@H](O)[C@@H](O)[C@H](O)[C@H]3CO)c2)cc(-c2cccnn2)c1 [Compound 1046, 3-(pyridazin-3-yl)-5-{[(3-{[(2R,3R,4R,5S)-3,4,5-trihydroxy-2-(hydroxymethyl)piperidin-1-yl]methyl}phenyl)methyl]amino}benzonitrile] | 52 | 1630 | 87300 |
| [N-]=[N+]=Nc1ccc(NCc2ccc(Cc3ccc(CN4C[C@H](O)[C@@H](O)[C@H](O)[C@H]4CO)cc3)cc2)c([N+](=O)[O-])c1 [Compound 1105, (2R,3R,4R,5S)-1-({4-[(4-{[(4-azido-2-nitrophenyl)amino]methyl}phenyl)methyl]phenyl}methyl)-2-(hydroxymethyl)piperidine-3,4,5-triol] | 12 | 60 | 9090 |
| [N-]=[N+]=Nc1ccc(NCCc2cc(CCN3C[C@H](O)[C@@H](O)[C@H](O)[C@H]3CO)cc(C3CCCCC3)c2)c([N+](=O)[O-])c1 [Compound 1115, (2R,3R,4R,5S)-1-[2-(3-{2-[(4-azido-2-nitrophenyl)amino]ethyl}-5-cyclohexylphenyl)ethyl]-2-(hydroxymethyl)piperidine-3,4,5-triol] | 10500 | 5490 | 407 |
| OC[C@@H]1[C@@H](O)[C@H](O)[C@@H](O)CN1CCCCCCNc1cc(C2CC2)cc(N2CCOCC2)c1 [Compound 1006, (2R,3R,4R,5S)-1-(6-{[3-cyclopropyl-5-(morpholin-4-yl)phenyl]amino}hexyl)-2-(hydroxymethyl)piperidine-3,4,5-triol] | 116 | 124 | 618 |
| CC(C)c1cc(CCNc2ccc(N=[N+]=[N-])cc2[N+](=O)[O-])cc(CCN2C[C@H](O)[C@@H](O)[C@H](O)[C@H]2CO)c1 [Compound 1077, (2R,3R,4R,5S)-1-[2-(3-{2-[(4-azido-2-nitrophenyl)amino]ethyl}-5-(propan-2-yl)phenyl)ethyl]-2-(hydroxymethyl)piperidine-3,4,5-triol] | 8140 | 10000 | 379 |
| Cc1cc(CN2CCOCC2)cc(NCc2ccc(CN3C[C@H](O)[C@@H](O)[C@H](O)[C@H]3CO)cc2)c1 [Compound 1005, (2R,3R,4R,5S)-2-(hydroxymethyl)-1-({4-[({3-methyl-5-[(morpholin-4-yl)methyl]phenyl}amino)methyl]phenyl}methyl)piperidine-3,4,5-triol] | 661 | 802 | > 100000 |
| N#Cc1cc(NCc2ccc(CN3C[C@H](O)[C@@H](O)[C@H](O)[C@H]3CO)cc2)cc(C2=COCCO2)c1 [Compound 1062, 3-(5,6-dihydro-1,4-dioxin-2-yl)-5-{[(4-{[(2R,3R,4R,5S)-3,4,5-trihydroxy-2-(hydroxymethyl)piperidin-1-yl]methyl}phenyl)-methyl]amino}benzonitrile] | < 1 | 68 | 35500 |
| O=[N+]([O-])c1cc(-c2ncc[nH]2)ccc1NCCc1ccc(CCN2C[C@H](O)[C@@H](O)[C@H](O)[C@H]2CO)cc1 [Compound 1078, (2R,3R,4R,5S)-2-(hydroxymethyl)-1-{2-[4-(2-{[4-(1H-imidazol-2-yl)-2-nitrophenyl]amino}ethyl)phenyl]ethyl}piperidine-3,4,5-triol] | 506 | 343 | 6970 |
| O=[N+]([O-])c1cc(-c2cccnn2)ccc1NCCc1ccc(CCN2C[C@H](O)[C@@H](O)[C@H](O)[C@H]2CO)cc1 [Compound 1109, (2R,3R,4R,5S)-2-(hydroxymethyl)-1-{2-[4-(2-{[2-nitro-4-(pyridazin-3-yl)phenyl]amino}ethyl)phenyl]ethyl}piperidine-3,4,5-triol] | 446 | 3 | 6550 |
| [N-]=[N+]=Nc1ccc(NCCC23CC(CCN4C[C@H](O)[C@@H](O)[C@H](O)[C@H]4CO)(C2)C3)c([N+](=O)[O-])c1 [Compound 1103, (2R,3R,4R,5S)-1-[2-(3-{2-[(4-azido-2-nitrophenyl)amino]ethyl}bicyclo[1.1.1]pentan-1-yl)ethyl]-2-(hydroxymethyl)piperidine-3,4,5-triol] | 569 | 2660 | 11900 |
